Like-named read-outs stand apart in the source and are kept apart here. Starred links: 1 amine or outer side, 2 acyl side, 3 side chain; linkers in the order of their positions; H or OH if unused. Positions of bridges follow the written chain, without caps; N, C: chain ends. Non-standard residues stand in square brackets, D forms with d. Residues, ends and D or L forms follow the SMILES beside them. *: point of attachment. hTyr(3S-OH,4S-OH,3'-OSO3H) = N[C@H](C(=O)O)[C@H](O)[C@@H](O)c1ccc(O)c(OS(=O)(=O)O)c1; Orn(4R-OH,5R-OH) = O=C([C@H](C[C@@H](O)[C@@H](O)N[*:3])N[*:1])[*:2]; Pro(3S-OH,4S-Me) = C[C@H]1CN[C@H](C(=O)O)[C@H]1O; X1 = CCCCCOc1ccc(-c2cc(-c3ccc(C(=O)*)cc3)no2)cc1; Gln(3R-OH) = NC(=O)C[C@@H](O)[C@H](N)C(=O)O; Hyp = O=C(O)[C@@H]1C[C@@H](O)CN1
Assays:
[1] = biological target: T1, OATP1B3 (Homo sapiens, UniProt Q9NPD5); conditions: for Inhibition DDI index, OATP1B3: antibiotic as perpetrator, salvianolic acid B (X10) as victim, (Cmax × fu-p × R)/IC50
T1 sequence (Q9NPD5 1-702): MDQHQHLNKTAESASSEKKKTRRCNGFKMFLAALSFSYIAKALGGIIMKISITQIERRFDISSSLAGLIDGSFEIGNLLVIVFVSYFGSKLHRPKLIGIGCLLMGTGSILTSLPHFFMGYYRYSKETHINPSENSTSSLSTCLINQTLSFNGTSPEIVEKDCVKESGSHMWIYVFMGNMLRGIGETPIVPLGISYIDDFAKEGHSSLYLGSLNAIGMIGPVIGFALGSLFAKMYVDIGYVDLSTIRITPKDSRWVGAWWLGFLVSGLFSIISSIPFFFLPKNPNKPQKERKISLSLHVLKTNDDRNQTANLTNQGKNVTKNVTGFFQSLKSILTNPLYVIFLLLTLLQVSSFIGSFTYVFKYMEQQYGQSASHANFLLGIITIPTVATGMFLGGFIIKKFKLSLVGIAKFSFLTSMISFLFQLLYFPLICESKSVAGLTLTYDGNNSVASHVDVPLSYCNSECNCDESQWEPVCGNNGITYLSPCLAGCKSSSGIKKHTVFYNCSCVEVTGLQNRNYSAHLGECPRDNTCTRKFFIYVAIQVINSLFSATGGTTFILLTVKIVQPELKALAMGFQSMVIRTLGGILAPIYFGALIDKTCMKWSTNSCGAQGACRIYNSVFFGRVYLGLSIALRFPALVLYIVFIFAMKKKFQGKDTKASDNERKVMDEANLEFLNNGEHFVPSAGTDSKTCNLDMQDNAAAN

[2] = test system: ALDH; type: in vitro ADME; conditions: human, pooled human liver cytosol
[3] = biological target: T1, OATP1B3; conditions: IC50, OATP1B3 [X10], mean ± SD (n = 3)
[4] = biological target: T2, UGT2B15 (Homo sapiens, UniProt P54855); type: in vitro ADME; conditions: for Inhibition DDI index, UGT2B15: antibiotic as perpetrator, senkyunolide I (X5) as victim, (Cmax × fu-p × R)/IC50
T2 sequence (P54855 24-530): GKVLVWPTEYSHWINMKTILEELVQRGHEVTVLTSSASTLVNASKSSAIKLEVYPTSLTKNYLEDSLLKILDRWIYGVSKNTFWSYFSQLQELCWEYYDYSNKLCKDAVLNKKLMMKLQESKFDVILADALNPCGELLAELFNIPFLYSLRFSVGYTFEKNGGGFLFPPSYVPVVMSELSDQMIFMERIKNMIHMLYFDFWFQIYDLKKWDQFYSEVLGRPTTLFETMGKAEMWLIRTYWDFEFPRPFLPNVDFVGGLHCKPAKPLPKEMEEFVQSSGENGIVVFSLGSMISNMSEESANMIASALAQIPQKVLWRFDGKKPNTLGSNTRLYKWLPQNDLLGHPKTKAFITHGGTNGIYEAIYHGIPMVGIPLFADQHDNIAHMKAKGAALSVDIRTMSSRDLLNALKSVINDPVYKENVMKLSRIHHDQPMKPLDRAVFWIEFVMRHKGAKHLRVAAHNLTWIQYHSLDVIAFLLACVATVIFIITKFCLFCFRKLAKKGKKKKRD

[5] = biological target: T1, OATP1B3; experiment: in vitro
[6] = biological target: T3, OAT1 (Homo sapiens, UniProt Q4U2R8); experiment: OAT1 inhibition by antibiotics, transfected HEK293 cells, tanshinol as substrate; conditions: for Inhibition DDI index, OAT1: antibiotic as perpetrator, tanshinol (X8) as victim, (Cmax × fu-p × R)/IC50
T3 sequence (Q4U2R8 1-563): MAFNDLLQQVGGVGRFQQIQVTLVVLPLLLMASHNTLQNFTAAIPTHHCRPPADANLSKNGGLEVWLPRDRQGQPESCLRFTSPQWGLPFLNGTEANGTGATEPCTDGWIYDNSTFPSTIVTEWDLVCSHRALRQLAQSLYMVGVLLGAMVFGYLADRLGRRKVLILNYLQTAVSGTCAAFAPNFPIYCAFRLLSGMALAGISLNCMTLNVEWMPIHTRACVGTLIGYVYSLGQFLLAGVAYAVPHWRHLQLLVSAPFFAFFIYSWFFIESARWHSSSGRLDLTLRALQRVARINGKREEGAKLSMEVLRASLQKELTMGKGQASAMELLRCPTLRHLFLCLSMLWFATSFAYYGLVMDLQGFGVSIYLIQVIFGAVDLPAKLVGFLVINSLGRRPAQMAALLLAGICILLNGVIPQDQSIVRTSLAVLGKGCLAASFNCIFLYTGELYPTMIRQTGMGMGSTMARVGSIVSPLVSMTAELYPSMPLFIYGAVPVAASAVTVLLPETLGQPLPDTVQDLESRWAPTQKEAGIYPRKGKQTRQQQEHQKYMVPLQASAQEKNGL

[7] = biological target: T4, OAT2 (Homo sapiens, UniProt Q9Y694); experiment: OAT2 inhibition by antibiotics, transfected HEK293 cells, tanshinol as substrate; type: in vitro ADME; conditions: for Inhibition DDI index, OAT2: antibiotic as perpetrator, tanshinol (X8) as victim, (Cmax × fu-p × R)/IC50
T4 sequence (Q9Y694 1-546 isoform Q9Y694-2): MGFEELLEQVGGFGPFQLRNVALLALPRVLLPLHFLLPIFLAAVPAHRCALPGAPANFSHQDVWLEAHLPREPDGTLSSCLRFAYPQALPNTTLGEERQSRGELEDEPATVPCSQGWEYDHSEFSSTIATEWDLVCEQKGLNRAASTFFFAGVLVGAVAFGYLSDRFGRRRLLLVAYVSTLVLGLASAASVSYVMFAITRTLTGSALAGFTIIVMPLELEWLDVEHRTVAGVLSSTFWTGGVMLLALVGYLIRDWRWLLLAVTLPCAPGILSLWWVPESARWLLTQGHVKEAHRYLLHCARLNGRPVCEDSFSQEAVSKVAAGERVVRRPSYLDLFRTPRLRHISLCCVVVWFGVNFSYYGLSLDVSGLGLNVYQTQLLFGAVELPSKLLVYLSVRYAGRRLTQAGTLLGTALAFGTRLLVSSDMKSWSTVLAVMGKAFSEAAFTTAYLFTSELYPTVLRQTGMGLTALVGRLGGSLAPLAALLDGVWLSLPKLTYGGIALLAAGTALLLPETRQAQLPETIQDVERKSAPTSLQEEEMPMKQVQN

[8] = HEK293, read-out: Inhibition of OAT2

Compound | Inhibition DDI index, OATP1B3 [1] | IC50 [3] [µM] | IC50 [4] [µM] | Inhibition DDI index, UGT2B15 [4] | inhibition at 1000 μmol/L [5] [%] | IC50 [6] [µM] | further results
CO[C@@]1(NC(=O)Cc2cccs2)C(=O)N2C(C(=O)O)=C(COC(N)=O)CS[C@@H]21 [A20, cefoxitin] | 2.81 | 26 ± 19 | 57 ± 11 | 1.28 | > 90 |  | IC50 [2]: 983 ± 117 µM; inhibition at 1000 μmol/L [2]: 56 to 88%; inhibition at 1000 μmol/L ([4]; human, cDNA-expressed UGT2B15): ≥ 90%
C[C@@H](c1ncncc1F)[C@](O)(Cn1cncn1)c1ccc(F)cc1F [A45, voriconazole] | 2.16 | 19 ± 8 | 55 ± 6 | 0.75 | 64 to 88 | 189 ± 75 | Inhibition DDI index, OAT1 [6]: 0.22; inhibition at 1000 μmol/L ([6]; human): 63 to 88%; inhibition at 1000 μmol/L ([4]; human, cDNA-expressed UGT2B15): ≥ 90%
CC1(C)S[C@@H]2[C@H](NC(=O)[C@H](N)c3ccccc3)C(=O)N2[C@H]1C(=O)O [A16, ampicillin] | 8.55 | 42 ± 18 |  |  |  |  | IC50 [2]: 2080 ± 283 µM; inhibition at 5000 μmol/L [2]: 56 to 88%; inhibition at 5000 μmol/L [5]: > 90%
CC[C@H]1OC(=O)[C@H](C)[C@@H](O[C@H]2C[C@@](C)(OC)[C@@H](O)[C@H](C)O2)[C@H](C)[C@@H](O[C@@H]2O[C@H](C)C[C@H](N(C)C)[C@H]2O)[C@](C)(O)C[C@@H](C)C(=O)[C@H](C)[C@@H](O)[C@]1(C)O [A34, erythromycin] | 0.35–1.04 | 3 ± 1 |  |  |  |  | inhibition at 100 μmol/L [5]: > 90%
CO/N=C(\C(=O)N[C@@H]1C(=O)N2C(C(=O)O)=C(CSc3nc(=O)c(=O)[nH]n3C)CS[C@H]12)c1csc(N)n1 [A6, ceftriaxone] | 0.68 | 201 ± 48 |  |  | 64 to 88 |  | 
CCCCCOc1ccc(-c2cc(-c3ccc(C(=O)N[C@H]4C[C@@H](O)[C@@H](O)NC(=O)[C@@H]5[C@@H](O)[C@@H](C)CN5C(=O)[C@H]([C@H](O)CC(N)=O)NC(=O)[C@H]([C@H](O)[C@@H](O)c5ccc(O)c(OS(=O)(=O)O)c5)NC(=O)[C@@H]5C[C@@H](O)CN5C(=O)[C@H]([C@@H](C)O)NC4=O)cc3)no2)cc1 [A40, micafungin] (X1-[Orn(4R-OH,5R-OH)]T[Hyp][hTyr(3S-OH,4S-OH,3'-OSO3H)][Gln(3R-OH)][Pro(3S-OH,4S-Me)]; lactam 1-C) |  | 3 ± 1 | 3 |  |  | 43 ± 4 | inhibition at 100 μmol/L ([6]; human): ≥ 90%; inhibition at 100 μmol/L ([4]; human, cDNA-expressed UGT2B15): ≥ 90%; inhibition at 100 μmol/L [5]: > 90%; IC50 [7]: 26 ± 2 µM; inhibition at 100 µM [7, 8]: > 90%
CC[C@H](C)C[C@H](C)CCCCCCCCC(=O)N[C@H]1C[C@@H](O)[C@@H](NCCN)NC(=O)[C@@H]2[C@@H](O)CCN2C(=O)[C@H]([C@H](O)CCN)NC(=O)[C@H]([C@H](O)[C@@H](O)c2ccc(O)cc2)NC(=O)[C@@H]2C[C@@H](O)CN2C(=O)[C@H]([C@@H](C)O)NC1=O [A41, caspofungin] | 0.35 | 1 | 39 ± 2 |  |  | 7 ± 2 | inhibition at 100 μmol/L ([6]; human): 63 to 88%; inhibition at 100 μmol/L ([4]; human, cDNA-expressed UGT2B15): 60 to 88%; inhibition at 100 μmol/L [5]: > 90%
CCN1CCN(C(=O)N[C@@H](C(=O)N[C@@H]2C(=O)N3[C@@H]2SC(C)(C)[C@@H]3C(=O)O)c2ccccc2)C(=O)C1=O [A13, piperacillin] |  |  | 797 ± 142 | 0.56 |  | 591 ± 154 | Inhibition DDI index, OAT1 [6]: 0.75; inhibition at 5000 μmol/L ([6]; human): 63 to 88%; inhibition at 5000 μmol/L ([4]; human, cDNA-expressed UGT2B15): 60 to 88%; IC50 [7]: 1210 ± 434 µM; inhibition at 5000 µM [7, 8]: 60 to 84%; Inhibition DDI index, OAT2 [7]: 0.37
CCN1CCN(C(=O)N[C@@H](C(=O)N[C@@H]2C(=O)N3C(C(=O)O)=C(CSc4nnnn4C)CS[C@H]23)c2ccc(O)cc2)C(=O)C1=O [A8, cefoperazone] | 1.72–4.43 | 27 ± 9 | 971 ± 130 | 0.12 | 64 to 88 |  | inhibition at 1000 μmol/L ([4]; human, cDNA-expressed UGT2B15): 60 to 88%
Cc1onc(-c2ccccc2)c1C(=O)N[C@@H]1C(=O)N2[C@@H]1SC(C)(C)[C@@H]2C(=O)O [A17, oxacillin] | 4.64 | 11 ± 2 |  |  | > 90 | 99 ± 31 | IC50 [2]: 465 ± 72 µM; inhibition at 1000 μmol/L [2]: 56 to 88%; Inhibition DDI index, OAT1 [6]: 0.52; inhibition at 1000 μmol/L ([6]; human): 63 to 88%; IC50 [7]: 467 ± 97 µM; inhibition at 1000 µM [7, 8]: 60 to 84%; Inhibition DDI index, OAT2 [7]: 0.11
teicoplanin [A26] | 0.60 |  |  |  |  |  | IC50 ([1]; read-out: IC50, OATP1B3 [X10], mean ± SD (n = 3)): 8 ± 2 µM; Inhibition of OATP1B3 ([1]; test concentration 100 μmol/L): > 90%; IC50 ([7]; read-out: IC50, OAT2 [X8], mean ± SD (n = 3)): 64 ± 14 µM
CO/N=C(\C(=O)N[C@@H]1C(=O)N2C(C(=O)O)=C(COC(C)=O)CS[C@H]12)c1csc(N)n1 [A9, cefotaxime] | 1.81–2.14 | 68 ± 20 |  |  | 64 to 88 |  | 
